From the supplement of paper PMC10307832

Legend:
Test in all cases: relative viability (nuclei count vs DMSO), 5 days (fraction); higher = more cells survive
R406 + Trametinib = compound: COc1cc(Nc2ncc(F)c(Nc3ccc4c(n3)NC(=O)C(C)(C)O4)n2)cc(OC)c1OC [R406] + CC(=O)Nc1cccc(-n2c(=O)n(C3CC3)c(=O)c3c(Nc4ccc(I)cc4F)n(C)c(=O)c(C)c32)c1 [Trametinib] (partner 0.02 µM)
Outline: (§1)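 Relative viability divides the nuclei count in treated wells by that in vehicle wells. Lung cancer cell lines were seeded in 1536-well plates, dosed by pin tool the next day, and fixed and stained after 5 days in one step with final 0.05% Triton X-100, 1% formaldehyde and 1 ug/ml Hoechst. Dosing was a single drug or a fixed anchor-drug dose plus five library-drug doses (not always all listed) in √10 steps, and values are medians of duplicate plates imaged at 4×.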

R406 + Palbociclib = compound: COc1cc(Nc2ncc(F)c(Nc3ccc4c(n3)NC(=O)C(C)(C)O4)n2)cc(OC)c1OC [R406] + CC(=O)c1c(C)c2cnc(Nc3ccc(N4CCNCC4)cn3)nc2n(C2CCCC2)c1=O [Palbociclib] (partner 0.5 µM)
Outline: as §1

R406 + Navitoclax = compound: COc1cc(Nc2ncc(F)c(Nc3ccc4c(n3)NC(=O)C(C)(C)O4)n2)cc(OC)c1OC [R406] + CC1(C)CCC(c2ccc(Cl)cc2)=C(CN2CCN(c3ccc(C(=O)NS(=O)(=O)c4ccc(N[C@H](CCN5CCOCC5)CSc5ccccc5)c(S(=O)(=O)C(F)(F)F)c4)cc3)CC2)C1 [Navitoclax] (partner 0.5 µM)
Outline: as §1

R406 + Linsitinib = compound: COc1cc(Nc2ncc(F)c(Nc3ccc4c(n3)NC(=O)C(C)(C)O4)n2)cc(OC)c1OC [R406] + C[C@]1(O)C[C@@H](c2nc(-c3ccc4ccc(-c5ccccc5)nc4c3)c3c(N)nccn32)C1 [Linsitinib] (partner 1 µM)
Outline: as §1

| Cell Line | relative viability (R406 + Trametinib; first compound 0.08 µM) | relative viability (R406 + Trametinib; first compound 0.253 µM) | relative viability (R406 + Trametinib; first compound 0.8 µM) | relative viability (R406 + Trametinib; first compound 2.53 µM) | relative viability (R406 + Trametinib; first compound 8 µM) | relative viability (R406 + Palbociclib; first compound 0.08 µM) | relative viability (R406 + Palbociclib; first compound 0.253 µM) | relative viability (R406 + Palbociclib; first compound 0.8 µM) | relative viability (R406 + Palbociclib; first compound 2.53 µM) | relative viability (R406 + Palbociclib; first compound 8 µM) | relative viability (R406 + Navitoclax; first compound 0.08 µM) | relative viability (R406 + Navitoclax; first compound 0.253 µM) | relative viability (R406 + Navitoclax; first compound 0.8 µM) | relative viability (R406 + Navitoclax; first compound 2.53 µM) | relative viability (R406 + Navitoclax; first compound 8 µM) | relative viability (R406 + Linsitinib; first compound 0.08 µM) | relative viability (R406 + Linsitinib; first compound 0.253 µM) | relative viability (R406 + Linsitinib; first compound 0.8 µM) | relative viability (R406 + Linsitinib; first compound 2.53 µM) | relative viability (R406 + Linsitinib; first compound 8 µM) |
| --- | --- | --- | --- | --- | --- | --- | --- | --- | --- | --- | --- | --- | --- | --- | --- | --- | --- | --- | --- | --- |
| NCI-H2023 | 0.499 | 0.562 | 0.582 | 0.286 | 0.129 | 0.359 | 0.355 | 0.359 | 0.174 | 0.106 | 0.896 | 0.975 | 1.1 | 0.888 | 0.603 | 0.633 | 0.714 | 0.62 | 0.253 | 0.55 |
| LC-2-ad | 0.912 | 0.907 | 0.971 | 0.465 | 0.334 | 0.414 | 0.571 | 0.501 | 0.408 | 0.277 | 0.514 | 0.479 | 0.453 | 0.18 | 0.101 | 0.828 | 0.832 | 0.729 | 0.385 | 0.158 |
| NCI-H1703 | – | – | – | – | – | – | – | – | – | – | 1.17 | 1.05 | 1.23 | 0.189 | 0.149 | 0.742 | 0.859 | 0.695 | 0.186 | 0.139 |
| Calu-6 | – | – | – | – | – | – | – | – | – | – | 0.798 | 0.809 | 0.949 | 0.579 | 0.316 | 0.937 | 1.08 | 1.12 | – | 0.49 |
| NCI-H2170 | 0.923 | 0.99 | 1.02 | 0.647 | 0.842 | 0.379 | 0.393 | 0.452 | 0.264 | 0.419 | 0.524 | 0.54 | 0.662 | 0.294 | 0.516 | – | – | – | – | – |
| NCI-H1650 | 0.604 | 0.585 | 0.633 | 0.054 | 0.124 | 0.337 | 0.345 | 0.396 | 0.117 | 0.0985 | 1.3 | 1.15 | 1.5 | 1.24 | 0.747 | – | – | – | – | – |
| NCI-H650 | 0.949 | 1.06 | 1 | 0.818 | 0.819 | 0.34 | 0.412 | 0.322 | 0.289 | 0.253 | – | – | – | – | – | 0.909 | 0.876 | 1.15 | 0.473 | 0.528 |
| EBC-1 | – | – | – | – | – | – | – | – | – | – | 0.433 | 0.403 | 0.422 | 0.317 | 0.189 | 1.01 | 1.07 | 1.13 | 0.732 | 0.423 |
| NCI-H2342 | 0.724 | 0.841 | 0.8 | 0.753 | 0.844 | 0.518 | 0.508 | 0.504 | 0.474 | 0.509 | – | – | – | – | – | – | – | – | – | – |
| NCI-H358 | 0.131 | 0.144 | 0.14 | 0.0877 | 0.103 | 0.12 | 0.192 | 0.126 | 0.0867 | 0.0882 | – | – | – | – | – | 0.889 | 0.752 | 0.723 | 0.418 | 0.336 |
| NCI-H1563 | – | – | – | – | – | – | – | – | – | – | – | – | – | – | – | 1.12 | 1.31 | 1.29 | 1.2 | 1.16 |
| NCI-H1299 | – | – | – | – | – | – | – | – | – | – | 1.01 | 1.06 | 1.05 | 1.11 | 0.995 | 0.979 | 1.09 | 1.13 | 0.93 | 0.496 |
| NCI-H661 | 0.561 | 0.604 | 0.57 | 0.489 | 0.366 | 0.398 | 0.411 | 0.382 | 0.42 | 0.322 | – | – | – | – | – | 0.436 | 0.72 | 0.515 | 0.39 | 0.335 |
| NCI-H522 | 0.779 | 0.917 | 0.787 | 0.746 | 0.599 | 1.11 | 0.916 | 0.969 | 0.899 | 0.719 | – | – | – | – | – | – | – | – | – | – |
| A549 | – | – | – | – | – | – | – | – | – | – | 0.932 | 1.2 | 1.26 | 1.31 | 0.675 | 0.52 | 0.659 | 0.619 | 0.584 | 0.418 |
| NCI-H1648 | 0.564 | 0.432 | 0.557 | 0.463 | 0.4 | 0.276 | 0.275 | 0.301 | 0.296 | 0.303 | – | – | – | – | – | – | – | – | – | – |
| SW 900 | 0.958 | 0.805 | 0.906 | 0.764 | 0.118 | 0.471 | 0.559 | 0.518 | 0.617 | 0.096 | – | – | – | – | – | – | – | – | – | – |
| IA-LM | – | – | – | – | – | – | – | – | – | – | 0.799 | 1.03 | 0.946 | 1.02 | 0.843 | 0.746 | 0.901 | 0.921 | 1.01 | 0.887 |
| ChaGo-K-1 | 0.853 | 0.962 | 0.982 | 0.844 | 0.763 | 0.768 | 0.98 | 1.02 | 0.928 | 0.706 | 0.969 | 1.16 | 1.01 | 0.947 | 0.44 | – | – | – | – | – |
| NCI-H596 | 0.814 | 0.909 | 0.775 | 0.72 | 0.196 | – | – | – | – | – | 0.836 | 1.04 | 1.16 | 0.72 | 0.115 | 1.09 | 1.2 | 1.2 | 0.878 | 0.232 |
| ABC-1 | – | – | – | – | – | 0.777 | 0.784 | 0.48 | 0.653 | 0.492 | – | – | – | – | – | 0.863 | 1.03 | 0.803 | 0.594 | 0.555 |
